{
  "source": "ChEMBL document CHEMBL1130910",
  "about": "“Design of novel porphyrin-binding peptides based on antibody CDR” (Bioorg Med Chem Lett, 1998)",
  "key": {"[1]": {"experiment": "Evaluated for binding constant with antigen meso-tetrakis (4-carboxyphenyl)porphyrin (TCPP) at 30% methanol content."}, "[2]": {"experiment": "Evaluated for binding constant with antigen meso-tetrakis (4-carboxyphenyl)porphyrin (TCPP) at 35% methanol content."}, "[3]": {"experiment": "Evaluated for binding constant with antigen meso-tetrakis (4-carboxyphenyl)porphyrin (TCPP) at 15% methanol content."}, "[4]": {"experiment": "Evaluated for binding constant with antigen meso-tetrakis (4-carboxyphenyl)porphyrin (TCPP) at 20% methanol content."}, "[5]": {"experiment": "Evaluated for binding constant with antigen meso-tetrakis (4-carboxyphenyl)porphyrin (TCPP) at 0% methanol content."}, "[6]": {"experiment": "Evaluated for binding constant with antigen meso-tetrakis (4-carboxyphenyl)porphyrin (TCPP) at 40% methanol content."}, "[7]": {"experiment": "Evaluated for binding constant with antigen meso-tetrakis (4-carboxyphenyl)porphyrin (TCPP) at 5% methanol content."}},
  "data": [
    {"smiles": "CC[C@H](C)[C@H](NC(=O)[C@H](CCCN=C(N)N)NC(=O)CNC(=O)Cc1ccc2ccc3cccc4ccc1c2c34)C(=O)N[C@H]1CSSC[C@H](C(=O)N[C@H](C(=O)N[C@@H](CCCCN)C(=O)N[C@@H](Cc2ccc(O)cc2)C(N)=O)[C@H](C)O)NC(=O)CNC(=O)[C@H](CC(N)=O)NC(=O)[C@@H](C)NC(=O)[C@@H]2CCCN2C1=O", "values": [
      {"measurement": "Ka", "setting": "[1]", "value": 70000, "unit": "M⁻¹"},
      {"measurement": "Ka", "setting": "[2]", "value": 15000, "unit": "M⁻¹"},
      {"measurement": "Ka", "setting": "[3]", "value": 260000, "unit": "M⁻¹"},
      {"measurement": "Ka", "setting": "[4]", "value": 140000, "unit": "M⁻¹"},
      {"measurement": "Ka", "setting": "[5]", "value": 680000, "unit": "M⁻¹"},
      {"measurement": "Ka", "setting": "[6]", "value": 9700, "unit": "M⁻¹"},
      {"measurement": "Ka", "setting": "[7]", "value": 420000, "unit": "M⁻¹"}
    ]}
  ]
}
